# Tested on: Streptococcus pyogenes (ATCC# 97-03 14289)
# Assay: Anti-microbial screen (growth inhibition, OD 570 nm)
# Format: cell-based
# Conditions: ATCC97, compounds at 170 μg/ml, Todd Hewitt Broth, read at 4 hrs
# Method: Streptococcus pyogenes (ATCC# 97-03 14289) were grown in Todd Hewitt Broth (THB) (Difco Laboratories #0492-17-6) overnight until they reached an optical density of (OD=0.636@ 570 nm) by reading 0.1 ml in a 96 well microtiter plate in a Molecular Devices Thermomax. This preparation was kept frozen as stocks in 30% v/v glycerol in 1.5 ml aliquots at −70 C° until used. Prior to screening, 1.5 ml aliquots were thawed and diluted into 50 ml THB. 200 μl of this dilution was added to 92 wells of microtiter plate. To three wells THB (200 μl) was added to serve as a blank and a sterility control. Test compounds in DMSO and appropriate concentrations of DMSO were added to Growth/Solvent Controls at 0 time. Plates were read at 0 time at 570 nm in the Molecular Devices plate reader to obtain compounds correction factors for insoluble or colored compounds. Plates were read again at 4 hrs.
# Compounds were assayed at a concentration of 170 μg/ml. Percent inhibition for each compound was calculated using the following formulae:
# Color correct=(O.D. 0 hr−Blank 0 hr)−(Solvent Control 0 hr−Blank 0 hr)
# % Inhibition=100−(O.D. test compound 4 hr−Blank 4 hr−color correct) divided by (O.D. growth/solvent control 4 hr−Blank 4 hr)
row,SMILES,inhibition at 170 µg/mL [%]
1,CCN1CCCC1CNC(=O)c1ccc2c(c1)nc1n2CC(=O)Nc2ccc(N(C)CCN(C)C)cc2-1 (stereo not drawn) [6000#00015],96.3
2,CCOC(=O)N1CCN(C(=O)c2ccc3c(c2)nc2n3C(CCCNC(=N)N)C(=O)Nc3ccc(N(CC)CC)cc3-2)CC1 (stereo not drawn) [6000#59439],96.4
3,CCOC(=O)N1CCN(C(=O)c2ccc3c(c2)nc2n3C(CCCNC(=N)N)C(=O)Nc3ccc(Sc4ccccn4)cc3-2)CC1 (stereo not drawn) [6000#59425],96.8
